Assay results taken from article PMC12236194, “Precision dendritic-supramolecular glycan assemblies for probing multivalent lectin interactions” (Chemical Science, 2025).

How the values were obtained:
[1] = Dynamic light scattering (DLS) hydrodynamic diameter in solution; assay type: physicochemical; conditions: H2O, 1 mM, 25 °C
Method: S3. Dynamic Light Scattering (DLS)
All measurements were conducted using a 384-well plate with individual sample volumes of 30
µL. Solutions of man-2, man-3, and man-6 were freshly prepared in H2O (1 mM). For the glycoassembly analyses, two solution conditions were used: samples prepared in H2O (5 μM), and samples prepared in mixed DMSO/H2O solutions (85% v/v, 50 μM). The concentration of each glycoassembly solution was determined by absorption spectroscopy according to ε values (M-1cm-1) reported in Section S2.2. All sample solutions were filtered through a 0.22 μm PTFE syringe filter before being added to a well. The sample plate was then centrifuged using a Fisherbrand Mini Plate Spinner Centrifuge at 2500 rpm for 20 sec, and measurements were immediately collected at 25 °C. Before data collection, images were taken of each well to confirm the absence of bubbles or visible dust particles that affect the DLS measurements. The hydrodynamic diameter (Dh) values represent the mean ± standard deviation (σ) of the hydrodynamic size averaged for three (1 sec) scans and all data were analyzed using DYNAMICS […]
S3.1.1. Measurement in H2O (1 mM)
Figure S53. DLS measurements of man -2 (H O, 1 mM).
S3.2.1. Measurement in H2O (1 mM)
Figure S54. DLS measurements of man-3 (H2O, 1 mM). […]

[2] = molecular target: monomeric Griffithsin (GRFT); parameters: method as in PMID 17340634; conditions: monovalent sugar; cited from earlier work

Compound	Hydrodynamic diameter (Dh) [1] [nm]	Kd [2] [µM]
O=Cc1ccc(OCc2cc(OCc3cn(CCOCCO[C@H]4O[C@H](CO)[C@@H](O)[C@H](O)[C@@H]4O)nn3)cc(OCc3cn(CCOCCO[C@H]4O[C@H](CO)[C@@H](O)[C@H](O)[C@@H]4O)nn3)c2)cn1 [man-2]	1.6 ± 0.6	
O=Cc1ccc(OCc2cc(OCc3cn(CCOCCO[C@H]4O[C@H](CO)[C@@H](O)[C@H](O)[C@@H]4O)nn3)c(OCc3cn(CCOCCO[C@H]4O[C@H](CO)[C@@H](O)[C@H](O)[C@@H]4O)nn3)c(OCc3cn(CCOCCO[C@H]4O[C@H](CO)[C@@H](O)[C@H](O)[C@@H]4O)nn3)c2)cn1 [man-3]	1.8 ± 0.1	
O=Cc1ccc(OCc2cc(OCc3cc(OCc4cn(CCOCCO[C@H]5O[C@H](CO)[C@@H](O)[C@H](O)[C@@H]5O)nn4)c(OCc4cn(CCOCCO[C@H]5O[C@H](CO)[C@@H](O)[C@H](O)[C@@H]5O)nn4)c(OCc4cn(CCOCCO[C@H]5O[C@H](CO)[C@@H](O)[C@H](O)[C@@H]5O)nn4)c3)cc(OCc3cc(OCc4cn(CCOCCO[C@H]5O[C@H](CO)[C@@H](O)[C@H](O)[C@@H]5O)nn4)c(OCc4cn(CCOCCO[C@H]5O[C@H](CO)[C@@H](O)[C@H](O)[C@@H]5O)nn4)c(OCc4cn(CCOCCO[C@H]5O[C@H](CO)[C@@H](O)[C@H](O)[C@@H]5O)nn4)c3)c2)cn1 [man-6]	2.4 ± 0.2	
OC[C@H]1O[C@H](O)[C@@H](O)[C@@H](O)[C@@H]1O [α-D-mannose]		~100
